These results are taken from US20170266292A1, “LIPIDIC COMPOUND-TELODENDRIMER HYBRID NANOPARTICLES AND METHODS OF MAKING AND USES THEREOF” (The Research Foundation for The State University of New York, priority 2016, published 2017).

Data set [1] is described as follows: DLS hydrodynamic diameter of lipidoid-telodendrimer hybrid NPs. The class given is physicochemical. The following applies: lipidoid alone. The procedure: (§1) Formulation of Lipidoid-Telodendrimer Nanoparticles. Nanoparticles were formed by mixing lipidoids and/or telodendrimers at required mass ratios in a solution of 90% ethanol and 10% 10 mM sodium citrate (by volume). Particle solutions were diluted with 10 times volume of phosphate buffered saline (PBS, 1×), and dialyzed against PBS (1×) for 4 h. The particle solution was then mixed with proteins at a ratio of 1/10 (protein/nanoparticle, w/w) to form nanoparticle-protein complex. The complex solution was then stored in sealed vessels at 4° C. for 1 day before use. For Mcl-1 inhibitor-loaded nanoparticle preparation, the Mcl-1 inhibitor, lipidoids and telodendrimers were in a solution of 90% ethanol and 10% 10 mM sodium citrate (by volume). Particle solutions were diluted with 10 times volume of PBS, yielding Mcl-1 inhibitor-loaded lipidoid-telodendrimer nanoparticles.
(§2) Characterization. Proton NMR spectrum was recorded on a Bruker AVANCE 600 MHz spectrometer. MALDI-TOF mass spectrum was recorded on a Bruker REFLEX-III instrument. Dynamic light scattering (DLS) studies were performed using a Zetatrac (Microtrac Inc.) instrument, and the area-based mean particle sizes were presented. Zeta potential measurements were carried out on a Malvern Nano-ZS zetasizer at room temperature. […] UV-vis spectra were recorded on a Thermo Scientific Nanodrop 2000c spectrophotometer.

The test system of data set [2] is U87 cells. Briefly: MTS cell viability assay on U87 cells. The class given is cell-based, human. As to conditions: 72 h continuous incubation. How it is done: Cell Culture and MTS Assays. The human glioblastoma multiforme (GBM) cell lines U87 and LN229, as well as the colon cancer cell line HT-29 cell line were purchased from American Type Culture Collection (ATCC, Manassas, Va., U.S.A.). U138 cell line established from human patients diagnosed with GBM. All cells were cultured in McCoy's 5 A medium supplemented with 10% fetal bovine serum (FBS), 100 U/mL penicillin G, and […] streptomycin at 37° C. using a humidified 5% CO2 incubator. Various formulations of proteins with different dilutions were added to the plate and then incubated in a humidified 37° C., 5% CO2 incubator. After a 72 h continuous incubation, a mixture solution composed of CellTiter 96 AQueous MTS, and an electron coupling reagent, PMS, was added to each well according to the manufacturer's instructions. The cell viability was determined by measuring absorbance at 490 nm using a microplate reader (BioTek Synergy 2). Untreated cells served as the control. Results were shown as the average cell viability [100%×(ODtreat−ODblank)/(ODcontrol−ODblank)] of triplicate wells. The cells were also treated with blank nanoparticles in PBS (1×) and blank lipidoids in a mixture of cremophor/ethanol (v:v=1:1) with different dilutions and incubated for a total of 72 h to evaluate nanoparticle-related toxicity.

The nature of data set [3]: Zeta potential of lipidoid-telodendrimer hybrid NPs. The class given is physicochemical. The following applies: lipidoid alone. The procedure:
as §1, §2

The subject of data set [4] is orthotopic human U87 GBM tumors. In words: Intracranial distribution of proteins after CED. Format: in vivo, mouse. As to conditions: one day after CED; protein/NP 1/10; confocal microscopy. How it is done:
Intracranial Orthotopic GBM Tumor Model. Female athymic nude mice (NCRNU-Sp/Sp), 6-7 weeks age, were purchased from Taconic Biosciences (Germantown, N.Y.). All animals were kept under pathogen-free conditions according to Association for Assessment and Accreditation of Laboratory Animal Care (AAALAC) guidelines and were allowed to acclimatize for at least 4 days prior to any experiments. All animal experiments were performed in compliance with institutional guidelines and according to protocol approved by the Committee for the Humane Use of Animals of State University of New York Upstate Medical University. Athymic nude mice were anesthetized with ketamine/xylazine (80 mg/kg: 5 mg/kg) through an intraperitoneal injection. The mice were then placed in a stereotactic head frame. Using aseptic technique, a midline skin incision was made a 0.5 mm anterior to bregma and 2.5 mm lateral of midline, a burr hole will be placed. A 25G needle delivered U87 (GBM) tumor cells 3.2 mm deep via the stereotactic head frame. Approximately 5×10^4 cells (in 1 μL of PBS) will be injected. This injection will occur over the course of 5 minutes. […]
CED Administration of Protein Formulations. […] For bioluminescence image analysis, the associated bioluminescence intensities were determined by Living Image software (Caliper Life Sciences) using operator-defined regions of interest (ROI) measurements.

Another data set concerns HT-29 cells. Briefly: Cellular uptake of protein-incorporated nanoparticles, HT-29 cells. Format: cell-based, human. As to conditions: 2 h at 37° C., FITC approx. 1 μg/mL. How it is done:
(§3) Cellular Uptake of Protein-Incorporated Nanoparticles. The cellular uptake and intracellular trafficking of the protein-incorporated nanoparticles were determined by fluorescence microscopy. FITC-BSA was used as a model protein. HT-29 and U87 cells were seeded in chamber slide with a density of 5×10^4 cells per well in 350 μL of McCoy's 5 A and cultured for 24 h. The original medium was replaced with free FITC-BSA and FITC-BSA-loaded nanoparticles at final FITC a concentration of 1 or 3 μg/mL at 37° C. After a 2 h incubation, the cells were washed three times with cold PBS (1×) and fixed with 4% formaldehyde for 10 min at room temperature, and the cell nuclei were stained with DAPI. The slides were mounted with cover slips and cells were imaged with a Leica fluorescence microscope or a Nikon FV1000 laser scanning confocal scanning microscope. The mean fluorescence density in cells (unit: pixel^−1) was calculated using the following equation: […]

Data set [5] can be described thus: Protein release from agarose gels (0.6% wt). The class given is physicochemical. As to conditions: FITC-BSA from agarose gels (0.6% wt) immersed in PBS. The procedure:
Protein Release from Agarose Gels. Free FITC-BSA and FITC-BSA-incorporated lipidoid-telodendrimer hybrid nanoparticles (1/10, FITC-BSA/nanoparticle, w/w) were loaded in agarose gels of a concentration of 0.6% wt. The sample-loaded agarose gels were immersed in PBS (1×) with shaking for protein release assays. The concentration of released FITC-BSA at various time points was measured by fluorescence spectroscopy employing a pre-established calibration equation. The release medium was replaced with fresh medium. The accumulated protein release was reported as the means for each triplicate sample.

Data set [6] relates to U87 cells. In words: Cellular uptake of protein-incorporated nanoparticles, U87 cells. As to conditions: 2 h at 37° C. The class given is cell-based, human. The procedure: as §3

A value given as a limit tells only on which side of the number the result lay.

Take `CCCCCCCCCCCCCCC(O)CN(C)CCCN(C)CC(O)CCCCCCCCCCCCCC` (centres unmarked) [lipidoid, 1,1′-(propane-1,3-diylbis(methylazanediyl))bis(hexadecan-2-ol)]: the “particle size of lipidoid NPs” value in data set [1] was about 129 nm. Besides, the “cytotoxicity of blank nanoparticles / lipidoid” value with U87 cells [2] is given as “toxicity was observed”. Further, the “ζ-potential of lipidoid NPs” value in data set [3] is “+8 mV”.

With “free Cy5-BSA: near-infrared fluorescence dye-labeled BSA (Cy5-BSA), model protein”, the “distribution in brain sections containing U87 tumors (fluorescence)” value in data set [4] is reported as “no obvious fluorescent signals”.

With “free FITC-BSA: fluorescein isothiocyanate (FITC) labeled BSA, model protein”, the “cellular uptake efficiency (semi-quantitative, mean fluorescence intensity)” value in the data set with HT-29 cells and in the data set on U87 cells [6] (FITC approx. 1 μg/mL) was “closes to zero” each time. Further, the “time within which ~50% of the proteins released” value in data set [5] is at most 2 h. The “cellular uptake (confocal laser fluorescence microscopy)” value with U87 cells [6] (FITC approx. 3 μg/mL) is on record as “very low”.
